The supplement of paper PMC11208160

Experiment: recombinant UMI read abundance after kanamycin selection (control-corrected) (log10(CPM+1)); higher = more efficient recombination; extreme values may be limits of the assay; sequences stand for … in AGTGCAGAGAAAATCGGCCAGTTTTCTCTGCCTGCAGTCCGCATGCCGTGGGACCCCTTGGGTTCTAACCTGTTGCCTAGATTTATGCAGCGGACTGCCTTTCTCCCAAAGTGATAAACCGG…AGGTTGGTTTCACT; site = the 11-nt donor
Outline: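 In Escherichia coli, a pool of donor and donor-binding-loop pairs, each with a 12-nt UMI, was tested for the IS621 bridge recombinase. Plating was on IPTG (0.07 mM) plus kanamycin, or without selection, in two replicates. Recombinant UMIs were amplified by PCR across the donor–target junction and sequenced, and counts were reported as log10(CPM+1) after averaging and control-derived scaling.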
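Further: IS621 bridge recombinase in Escherichia coli cells against a fixed T5 target plasmid.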

Sequence	recombinant UMI read abundance (log10)
CAAGCAGCATGGACCGGTTTTCCCGGTAATCCGTATTTGCT (site CAAGCAACTAG)	1.47
CAAGCAGCATGGACCGGTTTTCCCGGTAATCCGTATTTGCT (site CAAGCACCTAG)	0
CAAGCAGCATGGACCGGTTTTCCCGGTAATCCGTATTTGCT (site CAAGCAGCTAA)	0.285
CAAGCAGCATGGACCGGTTTTCCCGGTAATCCGTATTTGCT (site CAAGCAGCTAC)	0.0274
CAAGCAGCATGGACCGGTTTTCCCGGTAATCCGTATTTGCT (site CAAGCAGCTAG)	1.84
CAAGCAGCATGGACCGGTTTTCCCGGTAATCCGTATTTGCT (site CAAGCAGCTAT)	2.19
CAAGCAGCATGGACCGGTTTTCCCGGTAATCCGTATTTGCT (site CAAGCAGCTCG)	0.839
CAAGCAGCATGGACCGGTTTTCCCGGTAATCCGTATTTGCT (site CAAGCAGCTGG)	1.4
CAAGCAGCATGGACCGGTTTTCCCGGTAATCCGTATTTGCT (site CAAGCAGCTTG)	1.3
CAAGCAGCATGGACCGGTTTTCCCGGTAATCCGTATTTGCT (site CAAGCATCTAG)	0.937
CAAGCAGCATGGACCGGTTTTCCCGGTAATCCGTATTTGCT (site CAAGCCGCTAG)	0.0579
CAAGCAGCATGGACCGGTTTTCCCGGTAATCCGTATTTGCT (site CAAGCGGCTAG)	0.638
CAAGCAGCATGGACCGGTTTTCCCGGTAATCCGTATTTGCT (site CAAGCTGCTAG)	0.0658
CAAGCAGCATGGACCGGTTTTCCCGGTAATCCGTATTTGCT (site CAAGGAGCTAG)	0
CAAGCAGCATGGACCGGTTTTCCCGGTAATCCGTATTTGCT (site CAAGTAGCTAG)	0
CAAGCAGCATGGACCGGTTTTCCCGGTAATCCGTATTTGCT (site CAATCAGCTAG)	0
CAAGCAGCATGGACCGGTTTTCCCGGTAATCCGTATTTGCT (site CACGCAGCTAG)	0.416
CAAGCAGCATGGACCGGTTTTCCCGGTAATCCGTATTTGCT (site CAGGCAGCTAG)	0.00336
CAAGCAGCATGGACCGGTTTTCCCGGTAATCCGTATTTGCT (site CATGCAGCTAG)	0.0527

Sequence	recombinant UMI read abundance (log10)
CAAGCAGCATGGACCGGTTTTCCCGGTAATCCGTATTTGCT (site CCAGCAGCTAG)	0.00438
CAAGCAGCATGGACCGGTTTTCCCGGTAATCCGTATTTGCT (site CGAGCAGCTAG)	0.00425
CAAGCAGCATGGACCGGTTTTCCCGGTAATCCGTATTTGCT (site CTAGCAGCTAG)	0.616
CAAGCAGCATGGACCGGTTTTCCCGGTAATCCGTATTTGCT (site GAAGCAGCTAG)	0.0166
CAAGCAGCATGGACCGGTTTTCCCGGTAATCCGTATTTGCT (site TAAGCAGCTAG)	0.00331
CAAGCAGCATGGACCGGTTTTCCCGGTAATCCGTATTTGTT (site CAAGCAGCTAA)	1.83
CAAGCAGCATGGACCGGTTTTCCCGGTAATCCGTATTTGTT (site CAAGCAGCTAC)	0.0209
CAAGCAGCATGGACCGGTTTTCCCGGTAATCCGTATTTGTT (site CAAGCAGCTAG)	2.47
CAAGCAGCATGGACCGGTTTTCCCGGTAATCCGTATTTGTT (site CAAGCAGCTAT)	1.65
CAAGCCCCATGGACCGGTTTTCCCGGTAATCCGTATTTGTG (site CAAGCACCTCA)	0.0304
CAAGCCCCATGGACCGGTTTTCCCGGTAATCCGTATTTGTG (site CAAGCCCCTCA)	0.0397
CAAGCCCCATGGACCGGTTTTCCCGGTAATCCGTATTTGTG (site CAAGCGCCTCA)	0.0132
CAAGCCCCATGGACCGGTTTTCCCGGTAATCCGTATTTGTG (site CAAGCTCCTCA)	0.0205
CAAGCGCCATGGACCGGTTTTCCCGGTAATCCGTATTTGAG (site CAAGCGCCTCA)	0.0151
CAAGCGCCATGGACCGGTTTTCCCGGTAATCCGTATTTGAG (site CAAGCGCCTCC)	0.0109
CAAGCGCCATGGACCGGTTTTCCCGGTAATCCGTATTTGAG (site CAAGCGCCTCG)	0.0182
CAAGCGCCATGGACCGGTTTTCCCGGTAATCCGTATTTGAG (site CAAGCGCCTCT)	0.322
CAAGCGCCATGGACCGGTTTTCCCGGTAATCCGTATTTGTA (site CAAGCGCCTAA)	0.239
